Data reported in patent US20150087722A1, “TREATMENT FOR BREAST TUMOR CELL METASTASIS” (China Medical University, priority 2012, published 2015).

Experiments:
[1] = tested on: Ovarian Tumor Cell (SKOV3 cell strain); assay: MTT cell viability assay; type: cell-based; details: Homo sapiens, SK-OV-3
[2] = tested on: breast tumor cells MDA-MB-231; assay: colony formation assay; type: cell-based, human; details: MDA-MB-231, 24 h treatment, FIG. 1B
Excerpt: In order to know the effect of the compound II on the colony formation of the breast tumor cells MDA-MB-231, the cells were observed through a colony formation assay.

[3] = tested on: MMP-9 and MMP2 generated by cells induced by TNF-α; assay: Zymography enzyme activity assay of cells stimulated by TNF-α; type: cell-based; details: 20 μM, 10 ng/mL TNF-α
Protocol: In the Zymography enzyme activity assay, the cells (1×10^6) were planted in a 6-well plate. The next day after the cells were adhered to the wall, the cells were cultured in a serum free DMEM culture medium at an atmosphere of 5% CO2 in an incubator at 37° C. for 24 h. The compound II in different doses were added into the DMEM culture medium. In other test groups, the compound I was added, TNF-α/TGF-β were added or the compound I and TNF-α/TGF-β were added into the DMEM culture medium, wherein the concentration of compound I and TNF-α/TGF-β were […] and 10 ng/ml, respectively. The cells were cultured in the culture medium for 2 h and then washed with PBS. The cell culture medium was putted into a microcentrifuge tube and centrifuged for 10 min at 1500 rpm. The supernatant was taken to perform a protein gel electrophoresis (SDS-PAGE), so as to separate the proteins. Afterwards, the Gelatin or Casein was regarded as the substrate to analysis the enzyme activity of the proteins. Referring to FIG. 20, the Zymography enzyme activity assay was performed to detect the effect of the compound II on the enzyme activity of MMP-9 and MMP2 generated by cells induced and stimulated by 10 ng/mL TNF-α. The Zymography enzyme activity assay was described as the test example 4-1. […] Cells in the test groups included no the compound II. […]

[4] = tested on: Normal Keratinocyte Cell (HaCaT cell strain); assay: MTT cell viability assay; type: cell-based; details: Homo sapiens
[5] = tested on: Rat Skin Tumor Cell (B16F10 cell strain); assay: MTT cell viability assay; type: cell-based; details: Mus musculus, B16-F10
[6] = tested on: NF-κB in MDA-MB-231 cells; assay: NF-κB immunofluorescence staining; type: cell-based, human; details: MDA-MB-231, FIG. 7
Protocol: FIG. 7 illustrates photographs taken at a 200× field under a fluorescence microscope, where a primary antibody NF-κB was used and the cells were stained through the immunofluenrence staining method. In the immunofluenrence staining, the compound II in different concentrations were used to stimulate MDA-MB-231 cells, and a primary antibody NF-κB (with a dilution ratio of 1:250) was added, and then the cells were cultured at an atmosphere of 5% CO2 for 2 h at 37° C. Subsequently a fluorescence secondary antibody (with a dilution ratio of 1:200) was added, and finally DAPI (with a dilution ratio of 1:1000) was added. The cells were stored with protect from light at the room temperature for 5 min. The cells were observed under the fluorescence microscope and a photograph (200×) of the cells was taken. Finally, the cells were mounted with the mounting gel.

[7] = tested on: Liver Tumor Cell (Huh-7 cell strain); assay: MTT cell viability assay; type: cell-based; details: Homo sapiens
[8] = tested on: human normal breast cells MCF-10A stimulated by TNF-α/TGF-β; assay: F-actin immunofluorescence staining (cell morphology); type: cell-based; details: 2 μM with TNF-α/TGF-β 10 ng/ml, 24 h
Excerpt: FIG. 5 illustrates photographs taken at a 200× field under a fluorescence microscope, where a primary antibody F-actin is used and the cells are stained through the immunofluenrence staining method. Specifically, the photographs noted as “Control” in the first column show the morphologies of the human normal breast cells MCF-10A without being treated with the compound I and TNF-α/TGF-β. The photographs noted as “TNF-αTGF-β” in the second column show the morphologies of the human normal breast cells MCF-10A treated with TNF-α/TGF-β wherein the concentrations of TNF-α and TGF-β were 10 ng/ml. The photographs noted as “Compound I (2 μM)” in the third column show the morphologies of the human normal breast cells MCF-10A treated with the compound I having a concentration of 2 μM. The photographs noted as “TNF-α/TGF-β Compound I (2 μM)” in the fourth column show the morphologies of the human normal breast cells MCF-10A treated with the compound I, TNF-α and 10 TGF-β for 24 h, wherein the concentrations of the compound I, TNF-α and 10 TGF-β were 2 μM, 10 ng/ml and 10 ng/ml, respectively.

[9] = tested on: human normal breast cells MCF-10A stimulated by TNF-α/TGF-β; assay: transwell invasion assay; type: cell-based; details: 2 μM with TNF-α/TGF-β 10 ng/ml simultaneously

Row | IC50 [1] [µM] | IC50 [5] [µM] | IC50 [7] [µM] | SMILES | colony formation of breast tumor cells [2] | enzyme activity of MMP2 [3] | IC50 [4] [µM] | expression of NF-κB [6] | cell morphology (F-actin staining) [8] | invasion of MCF-10A [9]
1 | 15.3 | 20.6 | 15.1 | COC1=C(OC)C(=O)C(C)=C(C)C1=O [compound II] | significantly inhibit colony formation | no enzyme activity | 35.2 | inhibit expression of NF-κB | – | –
2 | – | – | – | COC1=C(OC)C(=O)C(C)=CC1=O [compound I] | – | – | – | – | still was epithelial-like | significantly decreased
